Data on twelve molecules can be found in PMC6112376, “Comprehensive Analyses and Prioritization of Tox21 10K Chemicals Affecting Mitochondrial Function by in-Depth Mechanistic Studies” (Environmental Health Perspectives, 2018).

For data set [1], the system named is HepG2 cells. The settings on record: for IC50: read-out: MMP assays IC50 (µM) HepG2.
Data set [2] deals with rat primary hepatocytes.
In data set [3] the test system is HepG2 cells. The settings on record: cited from earlier work.
The subject of data set [4] is rat primary hepatocytes. Description: MMP assay in rat primary hepatocytes. The settings on record: for IC50: read-out: MMP assays IC50 (µM) Rat Hepatocytes.
[5] abbreviates: read-out: MMP assays IC50 (µM) qHTS-HepG2.
Where [6] appears, read: read-out: MMP assays IC50 (µM), qHTS-HepG2.
Where [7] appears, read: HepG2 cells, single number from one experiment.

Counter-ions that a name gives are not always drawn. Like-named read-outs stand apart in the source and are kept apart here.

Consider `O=c1oc2ccccc2c(O)c1C(CC(O)c1ccc(-c2ccc(Br)cc2)cc1)c1ccccc1` (centres unmarked) [Bromadiolone], for which the “MMP assays efficacy (%) HepG2” value in data set [1] is recorded as -108%. Also, the results for the IC50 in data set [1], in data set [3] (setting [5]) and in data set [4] were 4.35 µM, 16.7 ± 1.13 µM and 3.4 ± 0.83 µM, respectively. In data set [2], the “MMP assays efficacy (%) Rat Hepatocytes” value is -79±51%. Also, the “MMP assays efficacy (%) qHTS-HepG2” value in data set [3] was -105±3%.
For the molecule `N=C(N)NN=C(/C=C/c1ccc([N+](=O)[O-])o1)/C=C/c1ccc([N+](=O)[O-])o1` [Nitrovin], the “MMP assays efficacy (%) HepG2” value in data set [1] is -118%. The 50% inhibitory concentration (IC50) in data set [1] was 5.48 µM; in data set [3] (setting [6]), 3.27 ± 0.57 µM; in data set [4], 16.4 ± 1.33 µM. Besides, the “MMP assays efficacy (%) Rat Hepatocytes” value in data set [2] is listed as -89±11%. In data set [3], the “MMP assays efficacy (%) qHTS-HepG2” value is on record as -94±2%.
Regarding `O=C(NC(=O)c1c(F)cccc1F)Nc1ccc(OC(F)(F)C(F)OC(F)(F)F)c(Cl)c1` (centres unmarked) [Novaluron], in data set [1], the “MMP assays IC50 (µM) HepG2” value was “inactive” and the “MMP assays efficacy (%) HepG2” value was “inactive”. The “MMP assays efficacy (%) Rat Hepatocytes” value in data set [2] is “inactive”. Moreover, in data set [3], the “MMP assays IC50 (µM) qHTS-HepG2” value was “inactive” and the “MMP assays efficacy (%) qHTS-HepG2” value was “inactive”. In addition, in data set [4], the “MMP assays IC50 (µM) Rat Hepatocytes” value is “inactive”.
Take `O=[Se](O)O` [Selenious acid]: in data set [1], the “MMP assays IC50 (µM) HepG2” value is “inactive” and the “MMP assays efficacy (%) HepG2” value was “inactive”. The “MMP assays efficacy (%) Rat Hepatocytes” value in data set [2] is given as -75±56%. In data set [3], the “MMP assays efficacy (%) qHTS-HepG2” value is given as -68±13%. Moreover, the IC50 in data set [3] (setting [6]) was 16 ± 22.8 µM. Besides, in data set [4], the IC50 came to 44.1 ± 26.9 µM.
Consider `COc1cc([C@@H]2c3cc4c(cc3[C@@H](O)[C@H]3COC(=O)[C@H]23)OCO4)cc(OC)c1O` [4'-Demethylepipodophyllotoxin], for which, in data set [1], the “MMP assays efficacy (%) HepG2” value is given as -63% and the half-inhibitory concentration (IC50) was 2.18 µM. Besides, the “MMP assays efficacy (%) Rat Hepatocytes” value in data set [2] is “inactive”. Also, the “MMP assays efficacy (%) qHTS-HepG2” value in data set [3] is listed as -51±8%. In data set [3] (setting [5]), the IC50 is 2.66 ± 3.92 µM. Besides, the “MMP assays IC50 (µM) Rat Hepatocytes” value in data set [4] was “inactive”.
As for `O=C1C(I)=CC(=C(c2cc(I)c(O)c(I)c2)c2ccccc2C(=O)O)C=C1I` [Iodophthalein sodium], the “MMP assays efficacy (%) HepG2” value in data set [1] is reported as -97%. Also, the values for the IC50 in data set [1], in data set [3] (setting [6]) and in data set [4] were 6.9 µM, 10.8 ± 3.91 µM and 8.73 ± 1 µM, respectively. Moreover, the “MMP assays efficacy (%) Rat Hepatocytes” value in data set [2] is -107±27%. Besides, the “MMP assays efficacy (%) qHTS-HepG2” value in data set [3] is reported as -82±5%.
`Oc1ccc2ccccc2c1N=Nc1ccccc1` [C.I. Solvent yellow 14]: the “MMP assays efficacy (%) HepG2” value in data set [1] is listed as -110%. Moreover, the IC50 was 15.8 µM in data set [1], 5.84 ± 2.06 µM in data set [3] (setting [5]) and 17 ± 10.6 µM in data set [4]. Further, the “MMP assays efficacy (%) Rat Hepatocytes” value in data set [2] is given as -86±4%. The “MMP assays efficacy (%) qHTS-HepG2” value in data set [3] is reported as -69±8%.
For the molecule `CCCCCCCCCCCC(=O)[O][Sn]([CH2]CCC)([CH2]CCC)[O]C(=O)CCCCCCCCCCC` [Dibutyltin dilaurate], in data set [1], the “MMP assays efficacy (%) HepG2” value is given as -86% and the 50% inhibitory concentration (IC50) amounted to 27.5 µM. Moreover, the “MMP assays efficacy (%) Rat Hepatocytes” value in data set [2] was -52+36%. Further, in data set [3], the “MMP assays IC50 (µM) qHTS-HepG2” value is “inactive” and the “MMP assays efficacy (%) qHTS-HepG2” value was “inactive”. For the same molecule, the half-inhibitory concentration (IC50) in data set [4] came to 22.4 ± 7.17 µM.
Consider `Cl.Cl.Nc1ccccc1N` [1,2-Phenylenediamine dihydrochloride], for which the “MMP assays efficacy (%) HepG2” value in data set [1] is given as -90%. The IC50 in data set [1] is 1.78 µM; in data set [3] (setting [5]) it was 0.44 ± 0.2 µM; in data set [4] it was 14.2 ± 2.3 µM. Further, the “MMP assays efficacy (%) Rat Hepatocytes” value in data set [2] is on record as -104±10%. Further, the “MMP assays efficacy (%) qHTS-HepG2” value in data set [3] was -99±9%.
On to `COC(=O)c1c(C)cc(O)c(C)c1O`, for which the “MMP assays efficacy (%) HepG2” value in data set [1] (setting [7]) is reported as -103%. Further, the IC50 in data set [1] (setting [7]) is 25.1 µM; in data set [3] (setting [6]) it was 16 ± 6.62 µM; in data set [4] (rat hepatocytes, mean ± SD of three experiments) it was 30.6 ± 28.4 µM. Besides, in data set [2], the “MMP assays efficacy (%) Rat Hepatocytes” value was -81±57%.
Take `O=C(c1ccc(OCCN2CCCCC2)cc1)c1c(-c2ccc(O)cc2)sc2cc(O)ccc12` [Raloxifene hydrochloride]: the “MMP assays efficacy (%) HepG2” value in data set [1] is given as -127%. The values for the IC50 in data set [1], in data set [3] (setting [6]) and in data set [4] were 7.94 µM, 6.69 ± 1.65 µM and 20.9 ± 7.23 µM, respectively. Further, the “MMP assays efficacy (%) Rat Hepatocytes” value in data set [2] is recorded as -87±14%. In addition, the “MMP assays efficacy (%) qHTS-HepG2” value in data set [3] is on record as -98±9%.
As for `CC(=O)O[Si](C)(OC(C)=O)OC(C)=O` [Methylsilanetriyl triacetate], in data set [1], the “MMP assays IC50 (µM) HepG2” value is “inactive” and the “MMP assays efficacy (%) HepG2” value is “inactive”. Further, the “MMP assays efficacy (%) Rat Hepatocytes” value in data set [2] is “inactive”. The “MMP assays efficacy (%) qHTS-HepG2” value in data set [3] is reported as -67±10%. For the same molecule, in data set [3] (setting [6]), the IC50 is 29.1 ± 16.4 µM. Also, the “MMP assays IC50 (µM) Rat Hepatocytes” value in data set [4] is “inactive”.
